Experimental data as given in article PMC12892976, “Alkylation-based optimization of antifungal FPPS inhibitors yields a potent, broad-spectrum lipophilic zoledronate derivative” (mBio, 2025).
Values after ≈ are worked out from the molar mass of the structure shown.

What was measured:
Type in all cases: cell-based
Mucor circinelloides [1] = experiment: MIC broth microdilution (CLSI); conditions: Mucor circinelloides 80-14-240-5007
Protocol: (§1) Antifungal susceptibility was determined by broth microdilution according to the CLSI guidelines described in M27-Ed4 ([16]).

Rhizopus oryzae = experiment: MIC broth microdilution (CLSI); conditions: Rhizopus oryzae 04-14-364-1703
Protocol: as §1

Cryptococcus gattii = experiment: MIC broth microdilution (CLSI); conditions: Cryptococcus gattii PNG27
Protocol: as §1

Fusarium oxysporum = experiment: MIC broth microdilution (CLSI); conditions: Fusarium oxysporum 07-200-3012
Protocol: as §1

Lomentospora prolificans = experiment: MIC broth microdilution (CLSI); conditions: Lomentospora prolificans 80-16-101-2445
Protocol: as §1

Scedosporium apiospermum [2] = experiment: MIC broth microdilution (CLSI); conditions: Scedosporium apiospermum 04-16-022-2268
Protocol: as §1

Candida tropicalis = experiment: MIC broth microdilution (CLSI); conditions: Candida tropicalis M230640
Protocol: as §1

Candida dubliniensis = experiment: MIC broth microdilution (CLSI); conditions: Candida dubliniensis M230642
Protocol: as §1

Aspergillus udagawae = experiment: MIC broth microdilution (CLSI); conditions: Aspergillus udagawae 8G81
Protocol: as §1

Aspergillus felis = experiment: MIC broth microdilution (CLSI); conditions: Aspergillus felis IHE87256683D6
Protocol: as §1

[3] = test system: Aspergillus frankstonensis; experiment: MIC broth microdilution (CLSI); conditions: Aspergillus frankstonensis DTO 341-F3
Protocol: as §1

Epidermophyton floccosum = experiment: MIC broth microdilution (CLSI); conditions: Epidermophyon floccosum R-113
Protocol: as §1

Paraphyton cookei = experiment: MIC broth microdilution (CLSI); conditions: Paraphyton cookei R-639
Protocol: as §1

Nannizzia nana = experiment: MIC broth microdilution (CLSI); conditions: Nannizzia nana R-133
Protocol: as §1

Mucor circinelloides [4] = experiment: checkerboard drug interaction (FICI, MICc);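 further: simplified diagonal checkerboard screen pairing antifungals with FPPS inhibitors, FICI calculated under the Loewe additivity model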
Protocol: (§2) Drug interactions between antifungals and FPPS inhibitors were investigated using a simplified checkerboard diagonal screening method ([45]). […] FICIs were determined according to the Loewe additivity model ([17]).

[5] = test system: Cryptococcus bacillisporus; experiment: checkerboard drug interaction (FICI, MICc);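 further: interaction of antifungals with FPPS inhibitors assessed by a simplified diagonal checkerboard screen, with FICI computed under the Loewe additivity model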
Protocol: as §2

Cryptococcus tetragattii = experiment: checkerboard drug interaction (FICI, MICc);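 further: simplified diagonal checkerboard screen pairing antifungals with FPPS inhibitors, with FICI calculated under the Loewe additivity model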
Protocol: as §2

Fusarium solani = experiment: checkerboard drug interaction (FICI, MICc);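 further: simplified diagonal checkerboard screen pairing antifungals with FPPS inhibitors, FICI derived under the Loewe additivity model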
Protocol: as §2

Scedosporium apiospermum [6] = experiment: checkerboard drug interaction (FICI, MICc);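 further: simplified diagonal checkerboard screen of antifungal plus FPPS inhibitor pairs, with FICI computed under the Loewe additivity model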
Protocol: as §2

Pichia kudriavzevii = experiment: checkerboard drug interaction (FICI, MICc);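 further: antifungal plus FPPS inhibitor interactions tested in a simplified diagonal checkerboard screen, with FICI calculated under the Loewe additivity model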
Protocol: as §2

Candida parapsilosis = experiment: checkerboard drug interaction (FICI, MICc);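 further: simplified diagonal checkerboard screen pairing antifungals with FPPS inhibitors, with FICI computed under the Loewe additivity model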
Protocol: as §2

Aspergillus niger = experiment: checkerboard drug interaction (FICI, MICc);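 further: simplified diagonal checkerboard screen pairing antifungals with FPPS inhibitors, FICI calculated under the Loewe additivity model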
Protocol: as §2

Aspergillus terreus = experiment: checkerboard drug interaction (FICI, MICc);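 further: simplified diagonal checkerboard screen pairing antifungals with FPPS inhibitors, FICI derived by the Loewe additivity model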
Protocol: as §2

Compound: O=P(O)(O)C(O)(Cn1ccnc1)P(=O)(O)O [ZOL, zoledronate]
- MIC / MEC (Mucor circinelloides [1]): 64 mg/L (≈ 235 µM)
- MIC / MEC (Rhizopus oryzae): >256 mg/L
- MIC / MEC (Cryptococcus gattii): 128 mg/L (≈ 470 µM)
- MIC / MEC (Fusarium oxysporum): >256 mg/L
- MIC / MEC (Lomentospora prolificans): >256 mg/L
- MIC / MEC (Scedosporium apiospermum [2]): 256 mg/L (≈ 941 µM)
- MIC / MEC (Candida tropicalis): 128 mg/L (≈ 470 µM)
- MIC / MEC (Candida dubliniensis): 4 mg/L (≈ 14.7 µM)
- MIC / MEC (Aspergillus udagawae): 256 mg/L (≈ 941 µM)
- MIC / MEC (Aspergillus felis): >256 mg/L
- MIC / MEC [3]: 128 mg/L (≈ 470 µM)
- MIC / MEC (Epidermophyton floccosum): 64 mg/L (≈ 235 µM)
- MIC / MEC (Paraphyton cookei): 128 mg/L (≈ 470 µM)
- MIC / MEC (Nannizzia nana): 128 mg/L (≈ 470 µM)
- FICI (Mucor circinelloides [4]; 5FC:ZOL): ≥4
- FICI (Mucor circinelloides [4]; AMB:ZOL): 3
- FICI (Mucor circinelloides [4]; CAS:ZOL): 1
- FICI (Mucor circinelloides [4]; FLC:ZOL): 0.38
- FICI (Mucor circinelloides [4]; ITR:ZOL): 0.25
- FICI (Mucor circinelloides [4]; KET:ZOL): 0.75
- FICI (Mucor circinelloides [4]; VOR:ZOL): 0.63
- bisphosphonate MICc (Mucor circinelloides [4]; ZOL with 5FC): 64
- bisphosphonate MICc (Mucor circinelloides [4]; ZOL with AMB): 128
- bisphosphonate MICc (Mucor circinelloides [4]; ZOL with CAS): 32
- bisphosphonate MICc (Mucor circinelloides [4]; ZOL with FLC): 16
- bisphosphonate MICc (Mucor circinelloides [4]; ZOL with ITR): 8
- bisphosphonate MICc (Mucor circinelloides [4]; ZOL with KET): 16
- bisphosphonate MICc (Mucor circinelloides [4]; ZOL with VOR): 8
- FICI ([5]; 5FC:ZOL): 1.03
- FICI ([5]; AMB:ZOL): 6
- FICI ([5]; CAS:ZOL): 1.13
- FICI ([5]; FLC:ZOL): 0.38
- FICI ([5]; ITR:ZOL): 1.29
- FICI ([5]; KET:ZOL): 1.02
- FICI ([5]; VOR:ZOL): 2.33
- bisphosphonate MICc ([5]; ZOL with 5FC): 128
- bisphosphonate MICc ([5]; ZOL with AMB): 256
- bisphosphonate MICc ([5]; ZOL with CAS): 16
- bisphosphonate MICc ([5]; ZOL with FLC): 32
- bisphosphonate MICc ([5]; ZOL with ITR): 32
- bisphosphonate MICc ([5]; ZOL with KET): 2
- bisphosphonate MICc ([5]; ZOL with VOR): 32
- FICI (Cryptococcus tetragattii; 5FC:ZOL): 1.13
- FICI (Cryptococcus tetragattii; AMB:ZOL): 1.25
- FICI (Cryptococcus tetragattii; CAS:ZOL): 2.5
- FICI (Cryptococcus tetragattii; FLC:ZOL): 0.5
- FICI (Cryptococcus tetragattii; ITR:ZOL): 2.06
- FICI (Cryptococcus tetragattii; KET:ZOL): 0.75
- FICI (Cryptococcus tetragattii; VOR:ZOL): 1.46
- bisphosphonate MICc (Cryptococcus tetragattii; ZOL with 5FC): 64
- bisphosphonate MICc (Cryptococcus tetragattii; ZOL with AMB): 64
- bisphosphonate MICc (Cryptococcus tetragattii; ZOL with CAS): 32
- bisphosphonate MICc (Cryptococcus tetragattii; ZOL with FLC): 16
- bisphosphonate MICc (Cryptococcus tetragattii; ZOL with ITR): 4
- bisphosphonate MICc (Cryptococcus tetragattii; ZOL with KET): 16
- bisphosphonate MICc (Cryptococcus tetragattii; ZOL with VOR): 32
- FICI (Fusarium solani; 5FC:ZOL): 3
- FICI (Fusarium solani; AMB:ZOL): 0.75
- FICI (Fusarium solani; CAS:ZOL): ≥4
- FICI (Fusarium solani; FLC:ZOL): 0.75
- FICI (Fusarium solani; ITR:ZOL): 0.38
- FICI (Fusarium solani; KET:ZOL): 0.75
- FICI (Fusarium solani; VOR:ZOL): 1.03
- bisphosphonate MICc (Fusarium solani; ZOL with 5FC): 256
- bisphosphonate MICc (Fusarium solani; ZOL with AMB): 64
- bisphosphonate MICc (Fusarium solani; ZOL with CAS): 256
- bisphosphonate MICc (Fusarium solani; ZOL with FLC): 128
- bisphosphonate MICc (Fusarium solani; ZOL with ITR): 32
- bisphosphonate MICc (Fusarium solani; ZOL with KET): 128
- bisphosphonate MICc (Fusarium solani; ZOL with VOR): 8
- FICI (Scedosporium apiospermum [6]; 5FC:ZOL): 3
- FICI (Scedosporium apiospermum [6]; AMB:ZOL): 1.5
- FICI (Scedosporium apiospermum [6]; CAS:ZOL): ≥4
- FICI (Scedosporium apiospermum [6]; FLC:ZOL): 0.63
- FICI (Scedosporium apiospermum [6]; ITR:ZOL): 0.56
- FICI (Scedosporium apiospermum [6]; KET:ZOL): 0.63
- FICI (Scedosporium apiospermum [6]; VOR:ZOL): 1.5
- bisphosphonate MICc (Scedosporium apiospermum [6]; ZOL with 5FC): 256
- bisphosphonate MICc (Scedosporium apiospermum [6]; ZOL with AMB): 128
- bisphosphonate MICc (Scedosporium apiospermum [6]; ZOL with CAS): 512
- bisphosphonate MICc (Scedosporium apiospermum [6]; ZOL with FLC): 32
- bisphosphonate MICc (Scedosporium apiospermum [6]; ZOL with ITR): 16
- bisphosphonate MICc (Scedosporium apiospermum [6]; ZOL with KET): 32
- bisphosphonate MICc (Scedosporium apiospermum [6]; ZOL with VOR): 128
- FICI (Pichia kudriavzevii; 5FC:ZOL): 1.13
- FICI (Pichia kudriavzevii; AMB:ZOL): 0.63
- FICI (Pichia kudriavzevii; CAS:ZOL): 0.56
- FICI (Pichia kudriavzevii; FLC:ZOL): 0.67
- FICI (Pichia kudriavzevii; ITR:ZOL): 0.5
- FICI (Pichia kudriavzevii; KET:ZOL): 0.38
- FICI (Pichia kudriavzevii; VOR:ZOL): 2.25
- bisphosphonate MICc (Pichia kudriavzevii; ZOL with 5FC): 256
- bisphosphonate MICc (Pichia kudriavzevii; ZOL with AMB): 32
- bisphosphonate MICc (Pichia kudriavzevii; ZOL with CAS): 16
- bisphosphonate MICc (Pichia kudriavzevii; ZOL with FLC): 128
- bisphosphonate MICc (Pichia kudriavzevii; ZOL with ITR): 64
- bisphosphonate MICc (Pichia kudriavzevii; ZOL with KET): 64
- bisphosphonate MICc (Pichia kudriavzevii; ZOL with VOR): 64
- FICI (Candida parapsilosis; 5FC:ZOL): 1
- FICI (Candida parapsilosis; AMB:ZOL): 1.5
- FICI (Candida parapsilosis; CAS:ZOL): 0.75
- FICI (Candida parapsilosis; FLC:ZOL): 0.38
- FICI (Candida parapsilosis; ITR:ZOL): 0.5
- FICI (Candida parapsilosis; KET:ZOL): 0.53
- FICI (Candida parapsilosis; VOR:ZOL): 1.21
- bisphosphonate MICc (Candida parapsilosis; ZOL with 5FC): 64
- bisphosphonate MICc (Candida parapsilosis; ZOL with AMB): 64
- bisphosphonate MICc (Candida parapsilosis; ZOL with CAS): 32
- bisphosphonate MICc (Candida parapsilosis; ZOL with FLC): 32
- bisphosphonate MICc (Candida parapsilosis; ZOL with ITR): 32
- bisphosphonate MICc (Candida parapsilosis; ZOL with KET): 4
- bisphosphonate MICc (Candida parapsilosis; ZOL with VOR): 32
- FICI (Aspergillus niger; 5FC:ZOL): 3
- FICI (Aspergillus niger; AMB:ZOL): 0.98
- FICI (Aspergillus niger; CAS:ZOL): 2
- FICI (Aspergillus niger; FLC:ZOL): 2
- FICI (Aspergillus niger; ITR:ZOL): 0.56
- FICI (Aspergillus niger; KET:ZOL): 1
- FICI (Aspergillus niger; VOR:ZOL): 1.02
- bisphosphonate MICc (Aspergillus niger; ZOL with 5FC): 512
- bisphosphonate MICc (Aspergillus niger; ZOL with AMB): 8
- bisphosphonate MICc (Aspergillus niger; ZOL with CAS): 512
- bisphosphonate MICc (Aspergillus niger; ZOL with FLC): 512
- bisphosphonate MICc (Aspergillus niger; ZOL with ITR): 32
- bisphosphonate MICc (Aspergillus niger; ZOL with KET): 256
- bisphosphonate MICc (Aspergillus niger; ZOL with VOR): 8
- FICI (Aspergillus terreus; 5FC:ZOL): 1.5
- FICI (Aspergillus terreus; AMB:ZOL): 1
- FICI (Aspergillus terreus; CAS:ZOL): 1.5
- FICI (Aspergillus terreus; FLC:ZOL): 0.38
- FICI (Aspergillus terreus; ITR:ZOL): 0.51
- FICI (Aspergillus terreus; KET:ZOL): 0.25
- FICI (Aspergillus terreus; VOR:ZOL): 0.52
- bisphosphonate MICc (Aspergillus terreus; ZOL with 5FC): 128
